Test results from the supplement of paper PMC11061612.

Key:
Experiment in all cases: combination Emax (second highest fraction inhibited in the dose matrix, 72 h); higher = more inhibition; extreme values may be limits of the assay
[1] = system: LS-1034 (Colorectal Carcinoma)
Outline: (§1)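 Cell lines in DMEM/F12 or RPMI with 10% FBS were plated in 1536-well plates, held 24 hours at 37°C, 5% CO2, then given two-drug dose matrices for 72 hours (DMSO typically 0.2%). Viability was read by CellTiter-Glo 2.0 luminescence and scaled as inhibition from 0 (vehicle wells) to 1 (blank wells). Combination Emax is the second-highest inhibition in the matrix; Bliss excess is observed combination effect minus expected EA + EB − EA·EB, EA and EB being single-agent effects.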

SK-N-SH (Neuroblastoma) = system: SK-N-SH (Neuroblastoma)
Outline: as §1

[2] = system: T84 (Colorectal Carcinoma)
Outline: as §1

T47D (Breast Carcinoma) = system: T47D (Breast Carcinoma)
Outline: as §1

NCI-H2373 (Mesothelioma) = system: NCI-H2373 (Mesothelioma)
Outline: as §1

[3] = system: OVCAR-3 (Ovarian Carcinoma)
Outline: as §1

[4] = system: SUP-M2 (T-Cell Non-Hodgkin's Lymphoma)
Outline: as §1

[5] = system: TUR (Acute Myeloid Leukemia)
Outline: as §1

[6] = system: CPC-N (Small Cell Lung Carcinoma)
Outline: as §1

ES6 (Ewing's Sarcoma) = system: ES6 (Ewing's Sarcoma)
Outline: as §1

[7] = system: BHT-101 (Thyroid Gland Carcinoma)
Outline: as §1

[8] = system: DBTRG-05MG (Glioblastoma)
Outline: as §1

[9] = system: MONO-MAC-6 (Acute Myeloid Leukemia)
Outline: as §1

[10] = system: OAW-28 (Ovarian Carcinoma)
Outline: as §1

[11] = system: SNU-407 (Colorectal Carcinoma)
Outline: as §1

[12] = system: IA-LM (Non-Small Cell Lung Carcinoma)
Outline: as §1

[13] = system: SCC-4 (Oral Cavity Carcinoma)
Outline: as §1

[14] = system: P32-ISH (Burkitt's Lymphoma)
Outline: as §1

[15] = system: NCI-H596 (Other Solid Carcinomas)
Outline: as §1

[16] = system: BxPC-3 (Pancreatic Carcinoma)
Outline: as §1

Structure (SMILES)	combination Emax [1]	combination Emax (SK-N-SH (Neuroblastoma))	combination Emax [2]	combination Emax (T47D (Breast Carcinoma))	combination Emax (NCI-H2373 (Mesothelioma))	combination Emax [3]	combination Emax [4]	combination Emax [5]	combination Emax [6]	combination Emax (ES6 (Ewing's Sarcoma))	combination Emax [7]	combination Emax [8]	combination Emax [9]	combination Emax [10]	combination Emax [11]	combination Emax [12]	combination Emax [13]	combination Emax [14]	combination Emax [15]	combination Emax [16]
CN(C)CCCOc1ccc(-c2ccc3ncc4c(c3c2)n(C2CCOCC2)c(=O)n4C)cn1 [AZD0156] + C[C@@H]1COCCN1C2=NC(=NC(=C2)C3(CC3)[S@](=N)(=O)C)C4=C5C=CNC5=NC=C4 [AZD6738] (first compound max 1 µM, 7x7, partner max 10 µM)	0.615	0.87	0.668	0.282	0.588	0.271	0.985	0.923	0.952	0.557	0.627	0.251	0.858	0.39	0.742	0.304	0.702	0.951	0.454	0.475
CN(C)CCCOc1ccc(-c2ccc3ncc4c(c3c2)n(C2CCOCC2)c(=O)n4C)cn1 [AZD0156] + O=C(c1cc(Cc2n[nH]c(=O)c3ccccc23)ccc1F)N1CCN(C(=O)C2CC2)CC1 [Olaparib] (first compound max 3 µM, partner max 3 µM)	0.293	0.292	0.353	0.366	0.359	0.227	0.606	0.273	0.396	0.315	0.362	0.152	0.461	0.284	0.296	0.305	0.164	0.628	0.41	0.0983
C=CCn1c(=O)c2cnc(Nc3ccc(N4CCN(C)CC4)cc3)nc2n1-c1cccc(C(C)(C)O)n1 [AZD1775] + C1CN(CCC1(C(=O)N[C@@H](CCO)C2=CC=C(C=C2)Cl)N)C3=NC=NC4=C3C=CN4 [Capivasertib] (first compound max 3 µM, partner max 3 µM)	0.763	0.711	0.785	0.555	0.54	0.695	1	0.955	0.948	0.472	0.631	0.474	0.95	0.593	0.675	0.413	0.505	1	0.708	0.681
C=CCn1c(=O)c2cnc(Nc3ccc(N4CCN(C)CC4)cc3)nc2n1-c1cccc(C(C)(C)O)n1 [AZD1775] + C[C@@H]1COCCN1C2=NC(=NC(=C2)C3(CC3)[S@](=N)(=O)C)C4=C5C=CNC5=NC=C4 [AZD6738] (first compound max 1 µM, partner max 10 µM)	0.763	0.953	0.817	0.412	0.608	0.74	1	0.938	0.999	0.652	0.771	0.332	1	0.522	0.758	0.446	0.763	1	0.663	0.624
C=CCn1c(=O)c2cnc(Nc3ccc(N4CCN(C)CC4)cc3)nc2n1-c1cccc(C(C)(C)O)n1 [AZD1775] + O=C(c1cc(Cc2n[nH]c(=O)c3ccccc23)ccc1F)N1CCN(C(=O)C2CC2)CC1 [Olaparib] (first compound max 1 µM, partner max 10 µM)	0.372	0.882	0.745	0.362	0.354	0.532	0.993	0.663	0.93	0.444	0.406	0.248	0.942	0.251	0.465	0.252	0.496	0.997	0.431	0.511
CCN(CCO)CCCOc1ccc2c(Nc3cc(CC(=O)Nc4cccc(F)c4)[nH]n3)ncnc2c1 [AZD2811] + C=CCn1c(=O)c2cnc(Nc3ccc(N4CCN(C)CC4)cc3)nc2n1-c1cccc(C(C)(C)O)n1 [AZD1775] (first compound max 1 µM, partner max 1 µM)	0.257	0.787	0.645	0.314	0.408	0.262	1	0.668	0.961	0.285	0.318	0.195	0.958	0.213	0.416	0.166	0.454	1	0.346	0.449
CCN(CCO)CCCOc1ccc2c(Nc3cc(CC(=O)Nc4cccc(F)c4)[nH]n3)ncnc2c1 [AZD2811] + C[C@@H]1COCCN1C2=NC(=NC(=C2)C3(CC3)[S@](=N)(=O)C)C4=C5C=CNC5=NC=C4 [AZD6738] (first compound max 1 µM, 7x7, partner max 10 µM)	0.64	0.906	0.675	0.313	0.534	0.221	0.999	0.861	0.961	0.6	0.555	0.236	0.908	0.396	0.658	0.304	0.633	0.992	0.377	0.447
CCN(CCO)CCCOc1ccc2c(Nc3cc(CC(=O)Nc4cccc(F)c4)[nH]n3)ncnc2c1 [AZD2811] + O=C(c1cc(Cc2n[nH]c(=O)c3ccccc23)ccc1F)N1CCN(C(=O)C2CC2)CC1 [Olaparib] (first compound max 1 µM, 7x7, partner max 10 µM)	0.192	0.479	0.112	0.233	0.206	0.147	0.975	0.285	0.807	0.249	0.201	0.242	0.783	0.213	0.306	0.222	0.406	0.946	0.238	0.244
CN(CCO)CC[C@H](CSc1ccccc1)Nc1ccc(S(=O)(=O)NC(=O)c2ccc(N3CCC([C@@H](O)c4ccccc4-c4ccc(Cl)cc4)CC3)cc2)cc1S(=O)(=O)C(F)(F)F [AZD4320] + C1CN(CCC1(C(=O)N[C@@H](CCO)C2=CC=C(C=C2)Cl)N)C3=NC=NC4=C3C=CN4 [Capivasertib] (first compound max 1 µM, 7x7, partner max 3 µM)	0.275	0.707	0.136	0.364	0.409	0.147	0.365	0.559	0.945	0.291	0.351	0.619	0.597	0.899	0.362	0.376	0.598	0.318	0.42	0.0788
CN(CCO)CC[C@H](CSc1ccccc1)Nc1ccc(S(=O)(=O)NC(=O)c2ccc(N3CCC([C@@H](O)c4ccccc4-c4ccc(Cl)cc4)CC3)cc2)cc1S(=O)(=O)C(F)(F)F [AZD4320] + C=CCn1c(=O)c2cnc(Nc3ccc(N4CCN(C)CC4)cc3)nc2n1-c1cccc(C(C)(C)O)n1 [AZD1775] (first compound max 1 µM, partner max 1 µM)	0.371	0.934	0.528	0.195	0.404	0.828	1	0.904	0.997	0.572	0.659	0.92	0.88	0.966	0.415	0.462	0.872	0.994	0.318	0.776
CN(CCO)CC[C@H](CSc1ccccc1)Nc1ccc(S(=O)(=O)NC(=O)c2ccc(N3CCC([C@@H](O)c4ccccc4-c4ccc(Cl)cc4)CC3)cc2)cc1S(=O)(=O)C(F)(F)F [AZD4320] + CCN(CCO)CCCOc1ccc2c(Nc3cc(CC(=O)Nc4cccc(F)c4)[nH]n3)ncnc2c1 [AZD2811] (first compound max 1 µM, 7x7, partner max 1 µM)	0.251	0.761	0.0513	0.335	0.125	0.234	0.979	0.255	0.971	0.161	0.279	0.775	0.959	0.958	0.411	0.505	0.861	0.915	0.289	0.236
CN(CCO)CC[C@H](CSc1ccccc1)Nc1ccc(S(=O)(=O)NC(=O)c2ccc(N3CCC([C@@H](O)c4ccccc4-c4ccc(Cl)cc4)CC3)cc2)cc1S(=O)(=O)C(F)(F)F [AZD4320] + CN(C)CCCOc1ccc(-c2ccc3ncc4c(c3c2)n(C2CCOCC2)c(=O)n4C)cn1 [AZD0156] (first compound max 1 µM, 7x7, partner max 1 µM)	0.347	0.641	0.108	0.283	0.191	0.132	0.388	0.118	0.967	0.188	0.394	0.745	0.422	0.912	0.0943	0.432	0.612	0.17	0.289	0.0513
